Holding throughout (format): cell-based
The target in experiment [1] is T1, interaction between the KRS protein and the laminin receptor (LR) (Homo sapiens, UniProt Q15046).
T1 construct: expressed in transfected cells; host or cells: yeast EGY/SH cells
Nature of the experiment: Yeast Two Hybrid inhibition of the interaction between the KRS protein and the laminin receptor (LR). To be noted: 1 μL of 20 mM DMSO solution per 200 μL culture; 30° C., 6 days; absorbance 540 nm; non-treated control = 100%. The method, then: The inhibitory activity against the interaction between the KRS protein and the laminin receptor (LR) was evaluated according to the Yeast Two Hybrid method described in WO2011/056021. According to the disclosures of WO2011/056021, we prepared a vector obtained by cloning the KRS gene in the LexA vector (Clontech) and a vector obtained by cloning the LR gene in the B42 vector (Clontech). The yeast cells, i.e., EGY/SH cells were co-transformed with the LexA-KRS vector and the B42-LR vector. The co-transformation was carried out using the Yeastmaker yeast transformation system2 kit (Clontech), according to the manufacturer's instruction. […] The cultured yeast cells were diluted with the said galactose medium, until the absorbance at 540 nm attains to about 0.15 to 0.2. The diluted culture (200 μL), containing the yeast cells, was added to each well of a 96-well plate. Each test compound was dissolved in dimethyl sulfoxide at a concentration of 20 mM and then the resulting solutions (1 μL) were added to each well. The plate was cultured at 30° C. for 6 days and then the absorbance of the each well was measured at 540 nm.
(§1) And also, specificity of the inhibitory activity was evaluated, using the yeast cells cotransformed with the LexA-KRS vector and the B42-AIMP2 vector; and the yeast cells co-transformed with the LexA-KRS vector and the B42-AIMP3 vector, which were respectively prepared according to WO2011/056021. The co-transformation was carried out using the Yeastmaker yeast transformation system2 kit (Clontech), according to the manufacturer's instruction. […] The cultured yeast cells were diluted with the said galactose medium, until the absorbance at 540 nm attains to about 0.15 to 0.2. The diluted culture (200 μL), containing the yeast cells, was added to each well of a 96-well plate. Each test compound was dissolved in dimethyl sulfoxide at a concentration of 20 mM and then the resulting solutions (1 μL) were added to each well. The plate was cultured at 30° C. for 6 days and then the absorbance of each well was measured at 540 nm. The respective yeast cell proliferation rates (%) in the treated samples were calculated in comparison with those of the non-treated control (100%) and the results thereof are shown in Table 1 below.
When KRS is bound to LR, the trans-activation domain is come close to the DNA-binding domain and the genes for synthesizing essential amino acids are expressed, which leads to normal growth of the transformed yeasts, thereby increasing the absorbance.

Experiment [2] addresses T2, binding between KRS and AIMP2 (Homo sapiens, UniProt Q15046).
T2 construct: expressed in transfected cells; host or cells: yeast cells (co-transformed)
Put plainly: Yeast Two Hybrid specificity test, LexA-KRS / B42-AIMP2 co-transformed yeast cells. To be noted: 1 μL of 20 mM DMSO solution per 200 μL culture; 30° C., 6 days; absorbance 540 nm; non-treated control = 100%. The method, then:
as §1

The target of experiment [3] is T3, binding between KRS and AIMP3 (Homo sapiens, UniProt Q15046).
T3 construct: expressed in transfected cells; host or cells: yeast cells (co-transformed)
T3 sequence (Q15046 whole entry): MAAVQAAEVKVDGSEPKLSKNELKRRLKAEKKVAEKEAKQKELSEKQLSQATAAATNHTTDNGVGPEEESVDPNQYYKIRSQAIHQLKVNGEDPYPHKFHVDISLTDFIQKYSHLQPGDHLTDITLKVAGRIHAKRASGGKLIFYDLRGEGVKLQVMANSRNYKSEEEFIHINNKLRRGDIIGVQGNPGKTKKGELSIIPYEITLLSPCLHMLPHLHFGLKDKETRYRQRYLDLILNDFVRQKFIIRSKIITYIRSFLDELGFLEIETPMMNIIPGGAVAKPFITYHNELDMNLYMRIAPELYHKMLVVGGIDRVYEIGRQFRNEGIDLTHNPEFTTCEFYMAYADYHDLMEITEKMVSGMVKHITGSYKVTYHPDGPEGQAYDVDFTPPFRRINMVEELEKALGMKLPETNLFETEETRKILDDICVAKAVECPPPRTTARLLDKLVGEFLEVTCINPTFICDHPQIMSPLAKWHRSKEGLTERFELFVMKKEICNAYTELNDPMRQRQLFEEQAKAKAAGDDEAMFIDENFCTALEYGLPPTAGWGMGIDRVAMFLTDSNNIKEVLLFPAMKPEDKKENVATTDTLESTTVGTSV
Nature of the experiment: Yeast Two Hybrid specificity test, LexA-KRS / B42-AIMP3 co-transformed yeast cells. To be noted: 1 μL of 20 mM DMSO solution per 200 μL culture; 30° C., 6 days; absorbance 540 nm; non-treated control = 100%. How it is done: as §1

In the next experiment the test system is A549 cells. Put plainly: Cell Migration Assay (transwell, laminin). To be noted: Homo sapiens, laminin 10 μg/mL in lower well, test compounds 0.39˜100 μM, 6 hours at 37° C. The method, then:
Cell migration was measured with a 24-well transwell having a polycarbonate membrane (8.0 μm pore size, Costar) at the bottom of the upper chamber. Each lower well was treated with laminin (10 μg/mL) and test compounds (0.39˜100 μM) along with a serum-free RPMI1640 medium. A549 cells (Korean Cell Line Bank) were suspended in a serum-free RPMI1640 medium at a concentration of 1×10^6 cells/mL and then the test compounds were added thereto at the indicated concentrations. Each resulting solution (100 μL) was added to the upper chamber. The cells were cultured at 37° C. for 6 hours in a CO2 incubator. The upper chamber was taken out and then the cells were fixed with PBS containing 70% methyl alcohol for 10 minutes, followed by washing with PBS twice. The cells were stained with hematoxylin (Sigma) for 10 minutes and then washed with distilled water. The non-migrated cells were removed from the upper portion of the polycarbonate membrane with a cotton swab. The membranes were excised and separated from the chamber, and then mounted to a slide using a gel mount reagent (Biomeda, USA). The migrated cells (attached to the lower face of the membrane) were counted at three randomly selected sites under a microscope (×20). The cell counting was performed with the Image J program. From the counted cell numbers, each IC50 value was calculated by non-linear regression curve fit using the “GraphPad Prism” program.
The cells are pulled by laminin residing in the lower chamber and then passed through the polycarbonate membrane, so as to attach to the lower face of the membrane.

Each structure is given as a SMILES string.

T1 sequence (Q15046 whole entry): as above
T2 sequence (Q15046 whole entry): as above

Consider `CC(C(=O)O)n1c(=NC(=O)c2cccc(Cl)c2)sc2c(F)c(F)ccc21` (stereo not shown) [Example 337, 2-(2-((3-chlorobenzoyl)imino)-6,7-difluorobenzo[d]thiazol-3(2H)-yl)propionic acid], for which, in experiment [1], the “Yeast cell proliferation rates KRS-LR (%)” value amounted to 12.3%. The “Yeast cell proliferation rates KRS-AIMP2 (%)” value in experiment [2] stood at 92.5%. Moreover, the “Yeast cell proliferation rates KRS-AIMP3 (%)” value in experiment [3] is listed as 100.3%.
In the same order, the values of `Cc1ccc(C(=O)N=c2sc3ccc(F)cc3n2C(C)C(=O)O)cc1` (stereo not shown) [Example 91, 2-[5-fluoro-2-(4-methylbenzoylimino)benzo[d]thiazol-3(2H)-yl]propionic acid] are 27.8%, 116.6% and 98.5%.
In the same order, the values of `CC(C(=O)O)n1c(=NC(=O)c2cccc(Cl)c2)sc2c(F)c(F)c(F)cc21` (stereo not shown) [Example 416, 2-(2-((3-chlorobenzoyl)imino)-5,6,7-trifluorobenzo[d]thiazol-3(2H)-yl)propionic acid] are 24.7%, 99.6% and 99.3%.
Taken in the same sequence, the figures for `CCC(C(=O)O)n1c(=NC(=O)c2ccc(C)cc2)sc2cc3c(cc21)OCO3` (stereo not shown) [Example 237, 2-(6-((4-methylbenzoyl)imino)-[1,3]dioxolo[4′,5′:4,5]benzo[1,2-d]thiazol-7(6H)-yl)butanoic acid] were 34.1%, 99.0% and 114.8%.
On to `CCC(C(=O)O)n1c(=NC(=O)c2ccc(OC)cc2)sc2c(F)c(F)ccc21` (stereo not shown) [Example 585], for which the “Yeast cell proliferation rates KRS-LR (%)” value in experiment [1] worked out at 46.3%. Further, the “Yeast cell proliferation rates KRS-AIMP2 (%)” value in experiment [2] was found to be 95.8%. Further, in experiment [3], the “Yeast cell proliferation rates KRS-AIMP3 (%)” value was 84.0%.
Taken in the same sequence, the figures for `CCC(C(=O)O)n1c(=NC(=O)c2ccc(C)cc2)sc2c(C)cccc21` (stereo not shown) [Example 344, 2-(7-methyl-2-((4-methylbenzoyl)imino)benzo[d]thiazol-3(2H)-yl)butanoic acid] were 11.7%, 99.0% and 102.8%.
In the same order, the values of `CCC(C(=O)O)n1c(=NC(=O)c2cccc(OC)c2)sc2c(F)cccc21` (stereo not shown) [Example 532] are 43.7%, 98.6% and 97.3%.
Taken in the same sequence, the figures for `Cc1cccc2c1sc(=NC(=O)c1cccc(Cl)c1)n2C(C)C(=O)O` (stereo not shown) [Example 353, 2-(2-((3-chlorobenzoyl)imino)-7-methylbenzo[d]thiazol-3(2H)-yl)propionic acid] were 28.2%, 89.4% and 99.5%.
As to `CCOc1ccc2c(c1)sc(=NC(=O)c1ccc(F)cc1)n2C(CC)C(=O)O` (stereo not shown) [Example 476, 2-(6-ethoxy-2-((4-fluorobenzoyl)imino)benzo[d]thiazol-3(2H)-yl)butanoic acid], in experiment [1], the “Yeast cell proliferation rates KRS-LR (%)” value stood at 29.6%. Also, the “Yeast cell proliferation rates KRS-AIMP2 (%)” value in experiment [2] came to 91.0%. Moreover, the “Yeast cell proliferation rates KRS-AIMP3 (%)” value in experiment [3] is 86.1%.
Taken in the same sequence, the figures for `CC(C(=O)O)n1c(=NC(=O)c2cccc(C(F)(F)F)c2)sc2ccc(Cl)cc21` (stereo not shown) [Example 359, 2-(5-chloro-2-((3-(trifluoromethyl)benzoyl)imino)benzo[d]thiazol-3(2H)-yl)propionic acid] were 21.9%, 101.6% and 107.0%.
In the same order, the values of `CCOc1ccc2c(c1)sc(=NC(=O)c1ccc(C)cc1)n2C(CC)C(=O)O` (stereo not shown) [Example 7, 2-{6-ethoxy-2-[(4-methylbenzoyl)imino]benzo[d]thiazol-3(2H)-yl}butanoic acid] are 36.9%, 106.4% and 100.1%.
In the same order, the values of `CCC(C(=O)O)n1c(=NC(=O)c2cccc(F)c2)sc2c(F)c(F)ccc21` (stereo not shown) [Example 582, 2-(6,7-difluoro-2-((3-fluorobenzoyl)imino)benzo[d]thiazol-3(2H)-yl)butanoic acid] are 49.3%, 99.0% and 93.0%.
As to `CC(C(=O)O)n1c(=NC(=O)c2ccc(F)c(F)c2)sc2cc(F)c(F)cc21` (stereo not shown) [Example 463, 2-(2-((3,4-difluorobenzoyl)imino)-5,6-difluorobenzo[d]thiazol-3(2H)-yl)propionic acid], in experiment [1], the “Yeast cell proliferation rates KRS-LR (%)” value worked out at 34.3%. In experiment [2], the “Yeast cell proliferation rates KRS-AIMP2 (%)” value was found to be 96.7%. Besides, in experiment [3], the “Yeast cell proliferation rates KRS-AIMP3 (%)” value worked out at 93.2%.
Taken in the same sequence, the figures for `CCC(C(=O)O)n1c(=NC(=O)c2cccc(F)c2)sc2c(Cl)cccc21` (stereo not shown) [Example 543, 2-(7-chloro-2-((3-fluorobenzoyl)imino)benzo[d]thiazol-3(2H)-yl)butanoic acid] were 36.1%, 97.1% and 90.3%.
Taken in the same sequence, the figures for `CCC(C(=O)O)n1c(=NC(=O)c2ccc(OC)cc2)sc2cc(OC(F)(F)F)ccc21` (stereo not shown) [Example 507] were 45.9%, 99.3% and 99.0%.
As to `CCC(C(=O)O)n1c(=NC(=O)c2ccc(OC)cc2)sc2c(F)cccc21` (stereo not shown) [Example 533], the “Yeast cell proliferation rates KRS-LR (%)” value in experiment [1] is 39.0%. The “Yeast cell proliferation rates KRS-AIMP2 (%)” value in experiment [2] was 94.8%. In experiment [3], the “Yeast cell proliferation rates KRS-AIMP3 (%)” value stood at 98.3%.
As a reminder, the IC50 is the concentration that inhibits the measured activity by half. Low values mean higher potency, high ones lower potency. Consider `CCC(C(=O)O)n1c(=NC(=O)c2cccc(Cl)c2)sc2c(F)c(F)c(F)cc21` (stereo not shown) [Example 417, 2-(2-((3-chlorobenzoyl)imino)-5,6,7-trifluorobenzo[d]thiazol-3(2H)-yl)butanoic acid], for which, in the experiment with A549 cells, the half-inhibitory concentration (IC50) came out at 22 µM.
For the molecule `CC(C(=O)O)n1c(=NC(=O)c2cccc(C(F)(F)F)c2)sc2c(F)c(F)c(F)cc21` (stereo not shown) [Example 380, 2-(5,6,7-trifluoro-2-((3-(trifluoromethyl)benzoyl)imino)benzo[d]thiazol-3(2H)-yl)propionic acid], in the experiment with A549 cells, the IC50 came out at 36.2 µM.
On the same count and under the same terms, with `CCC(C(=O)O)n1c(=NC(=O)c2ccc(C)cc2)sc2ccc(Cl)cc21` (stereo not shown) [Example 105, 2-[5-chloro-2-(4-methylbenzoylimino)benzo[d]thiazol-3(2H)-yl]butanoic acid] the figure was 19 µM; with `COc1ccc2c(c1)sc(=NC(=O)c1cccc(Cl)c1)n2C(C)C(=O)O` (stereo not shown) [Example 53, 2-{2-[(3-chlorobenzoyl)imino]-6-methoxybenzo[d]thiazol-3(2H)-yl}propionic acid], 59 µM.

Source of the values: patent publication US20150011528A1, “PHENYLIMIDE-CONTAINING BENZOTHIAZOLE DERIVATIVE OF ITS SALT AND PHARMACEUTICAL COMPOSITION COMPRISING THE SAME” (YUHAN CORPORATION, priority 2011, published 2015).
